Source: patent US10988477B2 (Merck Patent GmbH, priority 2018, dated 2021)

Target: GCN2 kinase (Homo sapiens, UniProt Q9P2K8)
Assay: GCN2 enzyme inhibition assay (Transcreener ADP2 fluorescence polarization)
Format: biochemical
Settings: Enzyme activity for compounds of Formula IV; Ki(app), 280 μM ATP, 25° C.
In short: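 Kinase activity is followed as ADP formation, measured by fluorescence polarization, using 4 nM enzyme with 280 μM ATP and 200 μM (RS)7 peptide at pH 7.5 and 25 °C for 1 h. Values come from a non-linear tight-binding fit.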

GCN2 kinase, sequence (Q9P2K8 whole entry): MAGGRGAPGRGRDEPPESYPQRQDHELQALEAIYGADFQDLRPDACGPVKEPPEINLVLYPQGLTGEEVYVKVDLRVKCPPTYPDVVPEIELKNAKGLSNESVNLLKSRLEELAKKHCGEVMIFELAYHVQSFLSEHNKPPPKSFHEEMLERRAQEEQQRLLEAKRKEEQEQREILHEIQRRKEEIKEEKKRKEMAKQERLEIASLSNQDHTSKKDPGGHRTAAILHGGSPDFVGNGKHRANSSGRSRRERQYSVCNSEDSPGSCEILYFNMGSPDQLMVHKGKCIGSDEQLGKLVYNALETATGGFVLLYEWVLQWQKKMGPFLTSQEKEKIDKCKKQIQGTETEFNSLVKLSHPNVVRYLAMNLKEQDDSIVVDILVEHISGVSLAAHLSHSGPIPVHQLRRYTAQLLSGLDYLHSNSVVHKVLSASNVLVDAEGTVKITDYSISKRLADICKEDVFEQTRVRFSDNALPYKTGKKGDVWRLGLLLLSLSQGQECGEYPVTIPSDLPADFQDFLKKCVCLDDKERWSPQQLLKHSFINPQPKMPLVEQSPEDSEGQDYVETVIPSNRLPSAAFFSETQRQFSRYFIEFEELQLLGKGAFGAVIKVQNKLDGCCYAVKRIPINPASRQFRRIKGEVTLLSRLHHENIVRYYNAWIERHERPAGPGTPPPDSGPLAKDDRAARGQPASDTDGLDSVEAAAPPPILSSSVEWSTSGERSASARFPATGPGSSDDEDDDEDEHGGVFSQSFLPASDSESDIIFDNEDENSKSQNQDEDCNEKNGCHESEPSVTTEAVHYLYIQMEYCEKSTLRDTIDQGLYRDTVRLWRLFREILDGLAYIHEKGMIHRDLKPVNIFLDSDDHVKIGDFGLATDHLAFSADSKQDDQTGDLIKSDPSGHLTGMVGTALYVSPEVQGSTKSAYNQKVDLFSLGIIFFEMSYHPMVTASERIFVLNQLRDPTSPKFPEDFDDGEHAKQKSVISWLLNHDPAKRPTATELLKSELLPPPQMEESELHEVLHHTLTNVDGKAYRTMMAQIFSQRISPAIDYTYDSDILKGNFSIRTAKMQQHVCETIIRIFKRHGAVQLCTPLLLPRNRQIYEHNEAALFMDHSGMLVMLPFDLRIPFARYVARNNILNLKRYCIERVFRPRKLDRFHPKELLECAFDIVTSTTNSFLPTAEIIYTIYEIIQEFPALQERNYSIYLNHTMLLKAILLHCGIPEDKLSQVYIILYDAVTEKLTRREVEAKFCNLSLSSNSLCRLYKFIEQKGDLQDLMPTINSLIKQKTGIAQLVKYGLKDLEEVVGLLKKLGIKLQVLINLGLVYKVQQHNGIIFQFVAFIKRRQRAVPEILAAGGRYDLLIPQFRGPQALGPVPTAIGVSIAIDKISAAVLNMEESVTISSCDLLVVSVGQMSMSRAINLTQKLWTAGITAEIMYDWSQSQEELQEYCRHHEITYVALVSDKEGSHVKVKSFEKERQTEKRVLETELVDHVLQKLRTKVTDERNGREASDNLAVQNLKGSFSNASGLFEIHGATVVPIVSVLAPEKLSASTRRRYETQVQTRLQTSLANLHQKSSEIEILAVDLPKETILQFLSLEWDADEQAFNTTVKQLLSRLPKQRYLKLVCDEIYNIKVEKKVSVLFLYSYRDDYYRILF

Which Ki does the source give for `CC1CN(c2ccnc(-c3cnc4cnc(C(F)(F)F)cn34)n2)C(C)C(c2cnc[nH]2)N1` (single isomer, unassigned) [IV-549, 3-(4-(3-(1H-Imidazol-5-yl)-2,5-dimethylpiperazin-1-yl)pyrimidin-2-yl)-6-(trifluoromethyl)imidazo[1,2-a]pyrazine] here?
Its Ki is 100 to 1000 nM.

`CN1CCCC2(CCN(c3ccnc(-c4cnc5cnc(C(F)(F)F)cn45)n3)C2)C1=O` (stereo not drawn) [IV-554, 7-Methyl-2-(2-(6-(trifluoromethyl)imidazo[1,2-a]pyrazin-3-yl)pyrimidin-4-yl)-2,7-diazaspiro[4.5]decan-6-one] was tested. Which Ki did it give?
Its Ki is 100 to 1000 nM.

How did the Ki turn out when `C[C@H]1[C@@H](c2cn[nH]c2)OCCN1c1ccnc(-c2cnc3cnc(Cl)cn23)n1` (racemic) [IV-235, Cis-4-(2-(6-Chloroimidazo[1,2-a]pyrazin-3-yl)pyrimidin-4-yl)-3-methyl-2-(1H-pyrazol-4-yl)morpholine] was run?
Its Ki is less than 10 nM.

Which Ki does the source give for `O=C(Nc1cn[nH]c1)[C@H]1CCCN(c2ccnc(-c3cnc4cnc(C(F)(F)F)cn34)n2)C1` [IV-721] here?
The Ki was 100 to 1000 nM.

`Cc1nc(C2=CCCN(c3ccnc(-c4cnc5cnc(Br)cn45)n3)C2)c[nH]1` [IV-356, 6-Bromo-3-(4-(5-(2-methyl-1H-imidazol-4-yl)-3,6-dihydropyridin-1(2H)-yl)pyrimidin-2-yl)imidazo[1,2-a]pyrazine] was tested. Which Ki did it give?
Its Ki is less than 10 nM.

For `CC(=O)N1CCN(c2ccnc(-c3cnc4cnc(-c5ccc(CO)cc5)cn34)n2)CC1` [IV-302, 1-(4-(2-(6-(4-(Hydroxymethyl)phenyl)imidazo[1,2-a]pyrazin-3-yl)pyrimidin-4-yl)piperazin-1-yl)ethan-1-one], which Ki is on record?
The Ki was 100 to 1000 nM.

With `CS(=O)(=O)NCC1CCN(c2ccnc(-c3cnc4cnc(C(F)F)cn34)n2)C1` (stereo not drawn) [IV-66, N-((1-(2-(6-(Difluoromethyl)imidazo[1,2-a]pyrazin-3-yl)pyrimidin-4-yl)pyrrolidin-3-yl)methyl)methanesulfonamide] as the molecule, how does the Ki read?
Its Ki is 100 to 1000 nM.

With `COCC1CCN(c2ccnc(-c3cnc4cnc(C(F)(F)F)cn34)n2)CC1` [IV-512, 3-(4-(4-(Methoxymethyl)piperidin-1-yl)pyrimidin-2-yl)-6-(trifluoromethyl)imidazo[1,2-a]pyrazine] as the molecule, how does the Ki read?
The Ki was 100 to 1000 nM.

Which Ki does the source give for `O=C1CC2(CCN(c3ccnc(-c4cnc5cnc(C(F)(F)F)cn45)n3)C2)CN1` (stereo not drawn) [IV-534, 7-(2-(6-(Trifluoromethyl)imidazo[1,2-a]pyrazin-3-yl)pyrimidin-4-yl)-2,7-diazaspiro[4.4]nonan-3-one] here?
The Ki was 100 to 1000 nM.

With `CC1CN(c2nccc(-c3cnc4cnc(C(F)(F)F)cn34)n2)C(C)C(c2cn[nH]c2)N1` (single isomer, unassigned) [IV-370, 3-(2-(2,5-Dimethyl-3-(1H-pyrazol-4-yl)piperazin-1-yl)pyrimidin-4-yl)-6-(trifluoromethyl)imidazo[1,2-a]pyrazine] as the molecule, how does the Ki read?
The Ki was 100 to 1000 nM.

How did the Ki turn out when `c1cc(-c2ccc3cc[nH]c3c2)nc(-c2cnc3cnccn23)c1` [IV-1, 3-(6-(1H-Indol-6-yl)pyridin-2-yl)imidazo[1,2-a]pyrazine] was run?
The Ki was 100 to 1000 nM.

For `CS(=O)(=O)CC1CCCN(c2ccnc(-c3cnc4cnc(C(F)(F)F)cn34)n2)C1` (stereo not drawn) [IV-482, 3-(4-(3-((Methylsulfonyl)methyl)piperidin-1-yl)pyrimidin-2-yl)-6-(trifluoromethyl)imidazo[1,2-a]pyrazine], which Ki is on record?
The Ki was 100 to 1000 nM.

For `NC(=O)c1cn2c(-c3nccc(N4CCN(C(=O)C5CC5)CC4)n3)cnc2cn1` [IV-277, 3-(4-(4-(Cyclopropanecarbonyl)piperazin-1-yl)pyrimidin-2-yl)imidazo[1,2-a]pyrazine-6-carboxamide], which Ki is on record?
Its Ki is 10 to 100 nM.

How did the Ki turn out when `CC(=O)NC1CCN(c2ccnc(-c3cnc4cnc(C(F)(F)F)cn34)n2)C1` (stereo not drawn) [IV-528, N-(1-(2-(6-(Trifluoromethyl)imidazo[1,2-a]pyrazin-3-yl)pyrimidin-4-yl)pyrrolidin-3-yl)acetamide] was run?
Its Ki is 100 to 1000 nM.

Which Ki does the source give for `FC(F)(F)c1cn2c(-c3nccc(N4CCCC(c5n[nH]c(C6CCCCC6)n5)C4)n3)cnc2cn1` (stereo not drawn) [IV-659, 3-(4-(3-(5-Cyclohexyl-1H-1,2,4-triazol-3-yl)piperidin-1-yl)pyrimidin-2-yl)-6-(trifluoromethyl)imidazo[1,2-a]pyrazine] here?
Its Ki is 100 to 1000 nM.

With `NC(=O)N1CCN(c2ccnc(-c3cnc4cnc(C(F)(F)F)cn34)n2)CC1` [IV-612, 4-(2-(6-(Trifluoromethyl)imidazo[1,2-a]pyrazin-3-yl)pyrimidin-4-yl)piperazine-1-carboxamide] as the molecule, how does the Ki read?
Its Ki is 100 to 1000 nM.

`Cn1ccc2cc(-c3ccnc(-c4cnc5cnc(C(F)F)cn45)n3)ccc21` [IV-158, 6-(Difluoromethyl)-3-(4-(1-methyl-1H-indol-5-yl)pyrimidin-2-yl)imidazo[1,2-a]pyrazine] was tested. Which Ki did it give?
The Ki was 100 to 1000 nM.

Which Ki does the source give for `Cn1cc(NC(=O)[C@@H]2CCCN(c3ccnc(-c4cnc5cnc(C(F)(F)F)cn45)n3)C2)cn1` [IV-728] here?
Its Ki is greater than 1000 nM.

With `N#CC1CCN(c2ccnc(-c3cnc4cnc(C(N)=O)cn34)n2)CC1` [IV-254, 3-(4-(4-Cyanopiperidin-1-yl)pyrimidin-2-yl)imidazo[1,2-a]pyrazine-6-carboxamide] as the molecule, how does the Ki read?
Its Ki is 10 to 100 nM.

Which Ki does the source give for `NC(=O)c1cn2c(-c3nccc(N4CCCC(CO)C4)n3)cnc2cn1` (stereo not drawn) [IV-242, 3-(4-(3-(Hydroxymethyl)piperidin-1-yl)pyrimidin-2-yl)imidazo[1,2-a]pyrazine-6-carboxamide] here?
The Ki was 10 to 100 nM.

Same assay, conditions: compounds of Formula II; 280 μM ATP, 4 nM GCN2 kinase

`CC1(C)CN(c2cc(-c3cnc4ccc(C(F)F)nn34)ncn2)CC(CNS(C)(=O)=O)N1` (stereo not drawn) [II-567, N-((4-(6-(6-(Difluoromethyl)imidazo[1,2-b]pyridazin-3-yl)pyrimidin-4-yl)-6,6-dimethylpiperazin-2-yl)methyl)methanesulfonamide] was tested. Which Ki did it give?
Its Ki is 10 to 1000 nM.

For `CC(C)C(C)(O)C1CCCN(c2cc(-c3cnc4ccc(C(F)F)nn34)ncn2)C1` (stereo not drawn) [II-622, 2-(1-(6-(6-(Difluoromethyl)imidazo[1,2-b]pyridazin-3-yl)pyrimidin-4-yl)piperidin-3-yl)-3-methylbutan-2-ol], which Ki is on record?
Its Ki is 10 to 1000 nM.

With `CC1CC(N=S(C)(C)=O)C(C)N(c2cc(-c3cnc4ccc(C(F)F)nn34)ncn2)C1` (single isomer, unassigned) [II-630, ((1-(6-(6-(Difluoromethyl)imidazo[1,2-b]pyridazin-3-yl)pyrimidin-4-yl)-2,5-dimethylpiperidin-3-yl)imino)dimethyl-λ^6-sulfanone] as the molecule, how does the Ki read?
The Ki was 10 to 1000 nM.

`N#CCC1CN(c2cc(-c3cnc4ccc(C(F)(F)F)nn34)ncn2)CCO1` (stereo not drawn) [II-513, 2-(4-(6-(6-(Trifluoromethyl)imidazo[1,2-b]pyridazin-3-yl)pyrimidin-4-yl)morpholin-2-yl)acetonitrile] was tested. Which Ki did it give?
Its Ki is 10 to 1000 nM.

Which Ki does the source give for `CS(=O)(=O)C1CCCN(c2cc(-c3cnc4ccc(C(F)F)nn34)ncn2)C1` (single isomer, unassigned) [II-530, 6-(Difluoromethyl)-3-(6-(3-(methylsulfonyl)piperidin-1-yl)pyrimidin-4-yl)imidazo[1,2-b]pyridazine] here?
The Ki was 10 to 1000 nM.

How did the Ki turn out when `CS(=O)(=O)NC1CN(c2cc(-c3cnc4ccc(C(F)F)nn34)ncn2)CCC1(F)F` (stereo not drawn) [II-597, N-(1-(6-(6-(Difluoromethyl)imidazo[1,2-b]pyridazin-3-yl)pyrimidin-4-yl)-4,4-difluoropiperidin-3-yl)methanesulfonamide] was run?
The Ki was 10 to 1000 nM.

Same assay, conditions: compounds of Formula V; 280 μM ATP, 4 nM GCN2 kinase

Which Ki does the source give for `O=C1CCN(c2ccnc(-c3cnc4sc(C(F)(F)F)cn34)n2)CCN1` [Compound V-8, 1-[2-[2-(Trifluoromethyl)imidazo[2,1-b]thiazol-5-yl]pyrimidin-4-yl]-1,4-diazepan-5-one] here?
The Ki was 100 to 1000 nM.
